# Assay results published in article PMC11173194, “Optimizing Antimicrobial Peptide Design: Integration of Cell-Penetrating Peptides, Amyloidogenic Fragments, and Amino Acid Residue Modifications” (International Journal of Molecular Sciences, 2024).
# Key:
# S. aureus 129B strain = experiment: Antibacterial activity in liquid medium; type: cell-based, Staphylococcus aureus; conditions: for Peptide Efficacy in Liquid Medium after 24 h of Incubation: S. aureus 129B strain (clinical isolate), Mueller–Hinton Broth, two independent experiments
# Method: (§1) We utilized various strains of microorganisms in this study. […] Bacillus cereus strain IP 5832 (susceptible), Pseudomonas aeruginosa strains ATCC 28753 (susceptible) and 2943 (resistant), and Escherichia coli strains K12 and MG1655 (both susceptible) were also utilized in our experiments.
# (§2) S. aureus (strains 209P and 129B), MRSA (strains ATCC 43300 and SA 180-F), B. cereus (strain IP 5832), P. aeruginosa (strains ATCC 28753 and 2943), and E. coli (strains K12 and MG1655) were cultured on Mueller–Hinton Broth (MHB).
# (§3) Statistical analysis was conducted using the SigmaPlot v15 software package (SPSS Inc., Chicago, IL, USA). Each experiment was repeated at least twice (n ≥ 2). Data are presented as mean ± standard deviation (M ± SD). Statistical significance was assessed using Student’s t-test and analysis of variance (ANOVA) in the tests of the antibacterial activity of the peptides. The confidence interval value of 0.95 was used, corresponding to an alpha value of 0.05. Statistically significant decreases in optical density compared to the negative control were considered for specific peptide concentrations with p-values below 0.05.
# S. aureus 209P strain = experiment: Antibacterial activity in liquid medium; type: cell-based, Staphylococcus aureus; conditions: for Peptide Efficacy in Liquid Medium after 15 h of Incubation: S. aureus 209P strain, Mueller–Hinton Broth, two independent experiments; for concentration at which inhibition of bacterial growth was observed (Figure 1): S. aureus 209P, liquid medium, 15 h, gentamicin positive control
# Method: as §1, §2, §3
# MRSA ATCC 43300 strain = experiment: Antibacterial activity in liquid medium; type: cell-based, methicillin-resistant Staphylococcus aureus; conditions: for Peptide Efficacy in Liquid Medium after 15 h of Incubation: MRSA ATCC 43300 strain, Mueller–Hinton Broth, two independent experiments
# Method: as §1, §2, §3
# MRSA SA 180-F strain = experiment: Antibacterial activity in liquid medium; type: cell-based, methicillin-resistant Staphylococcus aureus; conditions: MRSA SA 180-F strain (clinical isolate), Mueller–Hinton Broth, two independent experiments
# Method: as §1, §2, §3
# E. coli K12 strain = experiment: Antibacterial activity in liquid medium; type: cell-based, Escherichia coli; conditions: for Peptide Efficacy in Liquid Medium after 15 h of Incubation: E. coli K12 strain, Mueller–Hinton Broth, two independent experiments; for concentration with antimicrobial activity / effective concentration (text to Figure 4): E. coli K12, liquid medium, 15 h
# Method: as §1, §2, §3
# E. coli MG1655 strain = experiment: Antibacterial activity in liquid medium; type: cell-based, Escherichia coli; conditions: for Peptide Efficacy in Liquid Medium after 24 h of Incubation: E. coli MG1655 strain, Mueller–Hinton Broth, two independent experiments; for concentration with antimicrobial activity / effective concentration (text to Figure 4): E. coli MG1655, liquid medium, 24 h
# Method: as §1, §2, §3
# [1] = system: S. aureus (strain 209P), MRSA (strain ATCC 43300), B. cereus (strain IP 5832), P. aeruginosa (strain ATCC 28753), and E. coli (strain K12); experiment: Antimicrobial effect compared with gentamicin, panel of Figure 5; type: cell-based; conditions: Figure 5 panel; Mueller–Hinton Broth; 15 h; two independent experiments
# Method: The antibiotic gentamicin sulfate was used as a positive control. The concentration of gentamicin was 100 µM. Cell cultures in a liquid medium (Mueller–Hinton Broth) served as a negative control. Error bars show standard errors. Number of independent experiments is two. #—for significant differences with negative control p < 0.05.
# as §2, §3
# human skin fibroblasts = experiment: Toxicity of peptides against human fibroblasts (calcein AM / propidium iodide; cell cycle); type: cell-based; conditions: 96 h, both with and without pre-incubation; for number of dead cells: calcein AM / propidium iodide
# Method: The peptides were pre-incubated for 12 h in DMEM medium without serum in a CO2 incubator. After the incubation period, serum was added to the medium to a final concentration of 10%, and the preparation was added dropwise onto the cells. The cytotoxic effects of peptides against eukaryotic cells (human fibroblasts and BT474) were subsequently assessed using the same method as in the previous study [62].
# P. aeruginosa ATCC 28753 = experiment: Antibacterial activity in liquid medium; type: cell-based, Pseudomonas aeruginosa; conditions: for Peptide Efficacy in Liquid Medium after 15 h of Incubation: Mueller–Hinton Broth, two independent experiments; for concentrations of peptides suppressing the growth of bacteria compared to the negative control (Figure 3): liquid medium, 15 h
# Method: as §1, §2, §3
# [2] = system: P. aeruginosa 2943 strain; experiment: Antibacterial activity in liquid medium; type: cell-based, Pseudomonas aeruginosa; conditions: for Peptide Efficacy in Liquid Medium after 24 h of Incubation: P. aeruginosa 2943 strain (resistant), Mueller–Hinton Broth, two independent experiments; for antimicrobial effect compared to the negative control (Figure 3): P. aeruginosa 2943, liquid medium, 24 h
# Method: as §1, §2, §3
# B. cereus IP 5832 strain = experiment: Antibacterial activity in liquid medium; type: cell-based, Bacillus cereus; conditions: Mueller–Hinton Broth, two independent experiments
# Method: as §1, §2, §3
# [3] = POPE:POPG bilayer; 0.1 M KCl, pH 7.4; subthreshold peptide concentrations (20 µg/mL)
# Description: The effects of peptide R44K^S on the ionic permeability of planar lipid bilayers composed of an equimolar mixture of POPE and POPG mimicking target bacterial cell membranes was examined. The example of the time dependence of the transmembrane current produced by a subsequent one-side addition of R44K^S into the bathing solution (0.1 M KCl, pH 7.4) is shown in Figure 7A.
# The method of recording the transmembrane current under voltage-clamp conditions was used to study the effect of a synthetic peptide on a lipid membrane. Planar lipid bilayers were formed by the Montal and Mueller technique on an aperture of 50 µm diameter in a 10 µm thick Teflon film separating two compartments of Teflon chambers. Each compartment contained 0.1 M KCl and 10 mM HEPES at pH 7.4. Hexadecane was used for the aperture pretreatment. […]
# Ag/AgCl electrodes with 1.5% agarose/2 M KCl bridges were used to apply the transmembrane voltage (V) and measure the current flowing through the bilayer (I). […] Data were digitized by a Digidata 1550A and analyzed using pClamp 10.7 (Molecular Devices, LLC, Orleans Drive, Sunnyvale, CA, USA) and Origin 7.0 (OriginLab Corporation, Northampton, MA, USA). […]
# BT474 cells = conditions: 100 µg/mL, both with and without pre-incubation, 96 h
# Method: To analyze the cytotoxic effect, cells after incubation with peptides were stained with calcein AM (stains living cells) and propidium iodide (stains dead cells).
# Analysis of the cytostatic effect was performed on the basis of the distribution of cells by phases of the cell cycle and mitotic activity.
# The peptides were pre-incubated for 12 h in DMEM medium without serum in a CO2 incubator. After the incubation period, serum was added to the medium to a final concentration of 10%, and the preparation was added dropwise onto the cells. The cytotoxic effects of peptides against eukaryotic cells (human fibroblasts and BT474) were subsequently assessed using the same method as in the previous study.
Substance,Peptide Efficacy in Liquid Medium after 24 h of Incubation (S. aureus 129B strain),Peptide Efficacy in Liquid Medium after 15 h of Incubation (S. aureus 209P strain),Peptide Efficacy in Liquid Medium after 15 h of Incubation (MRSA ATCC 43300 strain),Peptide Efficacy in Liquid Medium after 24 h of Incubation (MRSA SA 180-F strain),Peptide Efficacy in Liquid Medium after 15 h of Incubation (E. coli K12 strain),Peptide Efficacy in Liquid Medium after 24 h of Incubation (E. coli MG1655 strain),Peptide Efficacy in Liquid Medium after 15 h of Incubation (P. aeruginosa ATCC 28753),Peptide Efficacy in Liquid Medium after 24 h of Incubation [2],concentration at which inhibition of bacterial growth was observed (Figure 1) (S. aureus 209P strain),concentration with antimicrobial activity / effective concentration (text to Figure 4) (E. coli K12 strain),concentration with antimicrobial activity / effective concentration (text to Figure 4) (E. coli MG1655 strain),cytotoxic effect (human skin fibroblasts; 100 µg/mL),concentrations of peptides suppressing the growth of bacteria compared to the negative control (Figure 3) (P. aeruginosa ATCC 28753),antimicrobial effect compared to the negative control (Figure 3) [2],also measured
"RKKRRQRRRGG-Sar-GVVVHI-X-GGKF-NH2 [R23F^S*, Peptide with TAT fragment and modified amyloidogenic fragment of S. aureus S1 protein, C-terminal amide]",379.8 µM,6 µM,12 µM,379.8 µM,3 µM,379.8 µM,6 µM,38 µM,,,,,,,concentrations with antimicrobial effect comparable to gentamicin (100 μM) against all bacteria [1]: 24 to 48 µM; number of dead cells (human skin fibroblasts; 50 µg/mL): 11 ± 3%; number of dead cells (human skin fibroblasts; 100 µg/mL): 12 ± 3%; Peptide Efficacy in Liquid Medium after 15 h of Incubation (B. cereus IP 5832 strain): 3 µM
"RKKRRQRRRGGGGVVVHINGGKFGGGGSRQIKIWFQNRRMKWKK [R44K^S, Unmodified peptide: TAT fragment, amyloidogenic fragment and Antp fragment; commercial product]",">194.4 µM, 129B strain",6 µM,12 µM,">194.4 µM, SA 180-F strain",6 µM,194.4 µM,3 µM,">194.4 µM, 2943 strain",6 to 12 µM,6 µM,19.4 µM,no cytotoxic effect,1.5 µM,did not exhibit antimicrobial effects,"single pore conductance [3]: 10–30 pS; concentration at which inhibitory effect / complete suppression of growth was observed (text to Figure 2) (MRSA ATCC 43300 strain; MRSA ATCC 43300, liquid medium, 15 h): 12 µM"
VVVHINGGKFGGGGSRQIKIWFQNRRMKWKK [V31K^S],">276.8 µM, 129B strain",">12 µM, 209P strain",">12 µM, ATCC 43300 strain",">276.8 µM, SA 180-F strain",">12 µM, K12 strain",">276.8 µM, MG1655 strain",">12 µM, ATCC 28753",">276.8 µM, 2943 strain",not demonstrated,did not exhibit antimicrobial activity,276.8 µM,no cytotoxic effect,6 µM,did not exhibit antimicrobial effects,"complete inhibition of bacterial growth (Figure 1) (S. aureus 129B strain; S. aureus 129B, liquid medium, 24 h): not demonstrated; cytotoxic effect (BT474 cells): no cytotoxic effect"
